Measurements: patent US11199553B2, “25-OH vitamin D derivatives for determining vitamin D metabolites” (ORGENTEC D[…], priority 2013, dated 2021)

System: 25OHD antibody
Settings: even at a 25OHD3 concentration of 5 ng/ml; 7.5 ng/ml tracer; vitamin D-free serum matrix; OD 450 nm
Procedure: For the ELISA detection of the specific 25OHD competition, 80 μl of vitamin D release reagent were added to serial dilutions of 25OHD3 in vitamin D-free serum matrix (SerCon, Seracare Inc.) in concentrations of 0, 5, 10, 20, 20, 50, 100, 200, 300 ng/ml in the presence of 7.5 ng/ml of biotin-25OHD tracer reagent and applied to microtitre plate wells coated with an anti-25OHD antibody. The binding of the tracer on the basis of the competing 25OHD concentration was determined with peroxidase-labelled streptavidin and a tetramethylbenzidine (TMB) colour reaction by measuring the OD 450 nm.
An antibody against 25-OH-vitamin D3 or 25-OH-vitamin D2 was diluted in Tris-buffered saline pH 8.0 to a concentration of 1 μg/ml. The wells of a microtitre plate (Maxisorb, Nunc) were coated with 100 μl of the diluted antibody, dried at 37° C. and stored at 4° C. until the test was carried out.
Defined concentrations of 25-OHD3 were added to vitamin D-free serum matrix (Seracon, Seracare Inc.). […] The antibody-bound biotin-25OHD tracer was detected with peroxidase-labelled streptavidin and a tetramethylbenzidine (TMB) colour reaction. After the substrate reaction had been stopped by addition of 100 μl of 50 mM phosphoric acid, the optical density was measured at 450 nm.

## 3α-[α-biotinamido-ω-dodeca(ethylene glycol)-amido]-25-hydroxy-deoxyvitamin D3 [VD1]
  competition of the tracer by 25OHD3 for binding sites on the 25OHD antibody: specific competition
